The results in this text go back to patent US8586747B2, “3,3-dimethyl tetrahydroquinoline derivatives” (Hoffmann-La Roche Inc., priority 2010, dated 2013).

This assay has as its system AMP-activated protein kinase (AMPK). Kind of assay: ADP Quest assay for AMPK activators. The class given is biochemical. On the set-up: key: fold AMPK activation with vs without activator at 30 µM. The following applies: fold of AMPK activation to phosphorylate SAMS peptide without and with an activator at the concentration of 30 µM. The method, then: ADP Quest™ Assay for AMPK Activators
This method evaluates AMP-activated protein kinase (AMPK) activity through detecting the accumulation of ADP product using an ADP Quest kit and determining the E30 values of the small molecular AMPK activators. ADP Quest kit (DiscoveRx, Fremont, Calif.) is stored at −20° C. before use. Before an experiment, thaw the kit (include assay buffer, ADP standard solution, reagent A and reagent B) and equilibrate to room temperature. Dispense the ADP Quest reagents into single-use aliquots and store at −20° C. The compound concentrations typically range from 0 µM to 100 µM by 2-fold dilution. AMP concentrations range from […] to 1 mM as the reference control. In an assay, thaw and equilibrate the assay buffer, reagent A and reagent B to room temperature for 30 minutes prior to use. Mix ATP, SAMS peptide substrate and compound, and place them into the 384-well assay plate. Add reagent A and B based on the assay kit protocol. Incubate the assay plate at room temperature for 30 minutes after addition the mixture followed by the addition of AMPK protein (Invitrogen, CA) to initiate the AMPK phosphorylation reaction. At the same time, reactions with AMPK activator AMP in the absence of enzyme is included as blank control. The reaction fluorescence signal is monitored and recorded on Envision in kinetic mode with the excitation wavelength of 530 nm and emission wavelength of 590 nm. The E30 value, defined as the fold of AMPK activation to phosphorylate SAMS peptide without and with an activator at the concentration of 30 µM, is calculated and analyzed using Prism 5.0.
Compound `CC1(C)Cc2cc(C(=O)O)ccc2NC1c1ccccc1NC(=O)c1ccccn1` (stereo not drawn) [Example 232, 3,3-Dimethyl-2-(2-(picolinamido)phenyl)-1,2,3,4-tetrahydroquinoline-6-carboxylic acid] registered an E30 of 1.28. The result for `CC1(C)Cc2cc(C(=O)O)ccc2NC1c1cccc(C(=O)NC2CCOC2)c1` (stereo not drawn) [Example 167, 3,3-Dimethyl-2-(3-(tetrahydrofuran-3-ylcarbamoyl)phenyl)-1,2,3,4-tetrahydroquinoline-6-carboxylic acid] reads 1.4; that for `CC1(C)Cc2cc(C(=O)O)ccc2NC1c1cccc(C(=O)NS(=O)(=O)c2ccccc2)c1` (stereo not drawn) [Example 175, 3,3-Dimethyl-2-(3-(phenylsulfonylcarbamoyl)phenyl)-1,2,3,4-tetrahydroquinoline-6-carboxylic acid], 1.5. The result for `CC1(C)Cc2cc(Cl)cc(C(=O)NS(=O)(=O)C3CC3)c2NC1c1cccc(N2CCOCC2)c1` (stereo not drawn) [Example 101, Cyclopropanesulfonic acid [6-chloro-3,3-dimethyl-2-(3-morpholin-4-yl-phenyl)-1,2,3,4-tetrahydro-quinoline-8-carbonyl]-amide] reads 1.4; that for `CC1(C)Cc2cc(C(=O)O)ccc2NC1c1ccc(F)c(NC(=O)C2CCC2)c1` (stereo not drawn) [Example 194, 2-(3-(Cyclobutanecarboxamido)-4-fluorophenyl)-3,3-dimethyl-1,2,3,4-tetrahydroquinoline-6-carboxylic acid], 1.25. The result for `CC1(C)Cc2c(C(=O)NS(=O)(=O)C3CC3)ccc(F)c2NC1c1cccc(N2CCOCC2)c1` (stereo not drawn) [Example 150, Cyclopropanesulfonic acid [8-fluoro-3,3-dimethyl-2-(3-morpholin-4-yl-phenyl)-1,2,3,4-tetrahydro-quinoline-5-carbonyl]-amide] reads 1.22; that for `CNS(=O)(=O)c1ccc(C2Nc3ccc(C(=O)O)cc3CC2(C)C)cc1` (stereo not drawn) [Example 226, 3,3-Dimethyl-2-(4-(N-methylsulfamoyl)phenyl)-1,2,3,4-tetrahydroquinoline-6-carboxylic acid], 1.32; that for `CC(=O)Nc1ccc(S(=O)(=O)Nc2cccc(C3Nc4ccc(C(=O)O)cc4CC3(C)C)c2)cc1` (stereo not drawn) [Example 169, 2-(3-(4-Acetamidophenylsulfonamido)phenyl)-3,3-dimethyl-1,2,3,4-tetrahydroquinoline-6-carboxylic acid], 1.38. In turn, `COC(=O)c1ccc2c(c1)CC(C)(C)C(c1cccc(C(=O)Nc3cnccn3)c1)N2` (stereo not drawn) [Example 197, Methyl 3,3-dimethyl-2-(3-(pyrazin-2-ylcarbamoyl)-phenyl)-1,2,3,4-tetrahydroquinoline-6-carboxylate] gave an E30 of 1.22. Compound `CC1(C)Cc2cc(C(=O)O)ccc2NC1c1cccc(N2CCNCC2)c1` (stereo not drawn) [Example 102, 3,3-Dimethyl-2-(3-piperazin-1-yl-phenyl)-1,2,3,4-tetrahydro-quinoline-6-carboxylic acid] showed an E30 of 1.4. The compound `CN1CCN(c2cccc(C3Nc4ccc(C(=O)O)cc4CC3(C)C)c2)C(=O)C1=O` (stereo not drawn) [Example 126, 3,3-Dimethyl-2-[3-(4-methyl-2,3-dioxo-piperazin-1-yl)-phenyl]-1,2,3,4-tetrahydro-quinoline-6-carboxylic acid] displayed an E30 of 1.28. The result for `Cc1ccc(F)cc1C1Nc2ccc(C(=O)NS(=O)(=O)C3CC3)cc2CC1(C)C` (stereo not drawn) [Example 60, Cyclopropanesulfonic acid [2-(5-fluoro-2-methyl-phenyl)-3,3-dimethyl-1,2,3,4-tetrahydro-quinoline-6-carbonyl]-amide] reads 1.2; that for `CC1(C)Cc2cc(C(=O)O)ccc2NC1c1cccc(C(=O)Nc2ccccc2)c1` (stereo not drawn) [Example 14, 3,3-Dimethyl-2-(3-phenylcarbamoyl-phenyl)-1,2,3,4-tetrahydro-quinoline-6-carboxylic acid], 1.2; that for `CC1(C)Cc2cc(C(=O)O)ccc2NC1c1cccc(N2CC(=O)NCC2=O)c1` (stereo not drawn) [Example 18, 2-[3-(2,5-Dioxo-piperazin-1-yl)-phenyl]-3,3-dimethyl-1,2,3,4-tetrahydro-quinoline-6-carboxylic acid], 1.41. `CC1CN(c2cccc(C3Nc4ccc(C(=O)O)cc4CC3(C)C)c2)CC(C)O1` (stereo not drawn) [Example 106, 2-[3-(2,6-Dimethyl-morpholin-4-yl)-phenyl]-3,3-dimethyl-1,2,3,4-tetrahydro-quinoline-6-carboxylic acid] came in with an E30 of 1.3. The result for `CC1(C)Cc2cc(C(=O)O)ccc2NC1c1cc(F)cc(N2CCNCC2)c1` (stereo not drawn) [Example 71, 2-(3-Fluoro-5-piperazin-1-yl-phenyl)-3,3-dimethyl-1,2,3,4-tetrahydro-quinoline-6-carboxylic acid] reads 1.22; that for `Cc1cc(C2Nc3ccc(C(=O)NS(C)(=O)=O)cc3CC2(C)C)cc(N2CCOCC2)c1` (stereo not drawn) [Example 65, N-[3,3-Dimethyl-2-(3-methyl-5-morpholin-4-yl-phenyl)-1,2,3,4-tetrahydro-quinoline-6-carbonyl]-methanesulfonamide], 1.46. The result for `CC(C)S(=O)(=O)NC(=O)c1ccc2c(c1)CC(C)(C)C(c1cccc(N3CCOCC3)c1)N2` (stereo not drawn) [Example 10, Propane-2-sulfonic acid [3,3-dimethyl-2-(3-morpholin-4-yl-phenyl)-1,2,3,4-tetrahydro-quinoline-6-carbonyl]-amide] reads 1.27; that for `CC1(C)Cc2cc(C(=O)N3CCC[C@H]3C(=O)O)ccc2NC1c1cccc(N2CCOCC2)c1` (stereo partly drawn) [Example 24, 1-[3,3-Dimethyl-2-(3-morpholin-4-yl-phenyl)-1,2,3,4-tetrahydro-quinoline-6-carboxyl]-pyrrolidine-2-carboxylic acid], 1.3.

Take `CC1(C)Cc2cc(C(=O)O)ccc2NC1c1cccc(NC(=O)N2CCCC2)c1` (stereo not drawn) [Example 35, 3,3-Dimethyl-2-{3-[(pyrrolidine-1-carbonyl)-amino]-phenyl}-1,2,3,4-tetrahydro-quinoline-6-carboxylic acid]: the E30 is on record as 1.41. The result for `CN1CCN(C(=O)Nc2cccc(C3Nc4ccc(C(=O)O)cc4CC3(C)C)c2)CC1` (stereo not drawn) [Example 27, 3,3-Dimethyl-2-{3-[(4-methyl-piperazine-1-carbonyl)-amino]-phenyl}-1,2,3,4-tetrahydro-quinoline-6-carboxylic acid] reads 1.24; that for `CC(C)(C)c1ccc(-c2cccc(C3Nc4ccc(F)c(C(=O)NS(=O)(=O)C5CC5)c4CC3(C)C)c2)cc1` (stereo not drawn) [Example 156, Cyclopropanesulfonic acid [2-(4′-tert-butyl-biphenyl-3-yl)-6-fluoro-3,3-dimethyl-1,2,3,4-tetrahydro-quinoline-5-carbonyl]-amide], 1.66; that for `CC1(C)Cc2cc(C(=O)NS(C)(=O)=O)ccc2NC1c1cccc(NC(=O)c2cnccn2)c1` (stereo not drawn) [Example 11, Pyrazine-2-carboxylic acid [3-(6-methanesulfonylaminocarbonyl-3,3-dimethyl-1,2,3,4-tetrahydro-quinolin-2-yl)-phenyl]-amide], 1.25. The figure for `CC1(C)Cc2cc(C(=O)O)ccc2NC1c1ccc(F)c(NC(=O)c2ccccc2)c1` (stereo not drawn) [Example 184, 2-(3-Benzamido-4-fluorophenyl)-3,3-dimethyl-1,2,3,4-tetrahydroquinoline-6-carboxylic acid] is 1.24.
